Consider 14 compounds from PubChem BioAssay (NCI).

Test systems include ACHN renal; DLD-1 colon; DMS 114 small cell lung; DMS 273 small cell lung; HOP-18 NSCLC; IGROV1 ovarian; KM20L2 colon; M14 melanoma; M19-MEL melanoma; NCI-H23 lung; SNB-78 CNS; LXFL 529 NSCLC; XF 498 CNS; MCF7 breast; NCI/ADR-RES ovarian.
Common to all, as to assay: NCI anticancer screen, dose series, 48 h

Each structure is given as a SMILES string.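 The compound was tested at five concentrations on cells cultured in 96-well plates, with a 48-hour exposure period. TGI: total growth inhibition.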 Bounds are passed on as bounds.

Take `CCOC(=O)C1=C(O)C(=O)c2ccsc2C1=O`: the TGI in the experiment on ACHN renal, in the experiment with DLD-1 colon, in the experiment with DMS 114 small cell lung, with DMS 273 small cell lung, in the experiment with HOP-18 NSCLC and in the experiment on IGROV1 ovarian was greater than 100 µM each time. Moreover, the TGI was greater than 100 µM in the experiment with KM20L2 colon; greater than 100 µM in the experiment on M14 melanoma; 40.5 µM with M19-MEL melanoma; greater than 100 µM in the experiment on NCI-H23 lung; greater than 100 µM in the experiment on SNB-78 CNS.

With `COc1ccc(NC(=O)C/C(C)=N\N=C(N)N)c([N+](=O)[O-])c1`, the TGI in the experiment with ACHN renal, in the experiment on DLD-1 colon, with DMS 114 small cell lung, in the experiment on DMS 273 small cell lung, with HOP-18 NSCLC and with IGROV1 ovarian was greater than 100 µM in each case. Further, the TGI in the experiment with KM20L2 colon, in the experiment on LXFL 529 NSCLC, with M14 melanoma, in the experiment with M19-MEL melanoma, in the experiment on NCI-H23 lung and with SNB-78 CNS was greater than 100 µM throughout. The TGI with XF 498 CNS was greater than 100 µM.

For the compound `CC(=O)OC1C(O)COC(O[C@H]2CC[C@]34C[C@]35CC[C@]3(C)C([C@@]6(C)CC[C@@H](C(C)(C)O)O6)[C@@H](O)C[C@@]3(C)C5C[C@H](OC3OCC(O)C(O)C3O)[C@H]4C2(C)C)C1OC1OCC(O)C(O)C1O` (some centres undefined), the TGI with ACHN renal, in the experiment on IGROV1 ovarian, in the experiment on M14 melanoma, in the experiment with MCF7 breast, in the experiment with NCI-H23 lung and with NCI/ADR-RES ovarian was greater than 100 µM each time.

On to `CN(CCO)c1nc2c(c(=O)[nH]1)CCC2`, for which the TGI in the experiment with ACHN renal, in the experiment with DLD-1 colon, with DMS 114 small cell lung, with DMS 273 small cell lung, in the experiment with HOP-18 NSCLC and in the experiment with IGROV1 ovarian was greater than 100 µM throughout. Also, the TGI in the experiment with KM20L2 colon, in the experiment with LXFL 529 NSCLC, in the experiment on M14 melanoma, in the experiment with M19-MEL melanoma, in the experiment with NCI-H23 lung and in the experiment with SNB-78 CNS was greater than 100 µM in each case. This compound also registered a TGI in the experiment on XF 498 CNS greater than 100 µM.

On to `Cc1ccc(/C=N/Nc2cnccn2)s1`, for which the TGI in the experiment on ACHN renal, in the experiment with IGROV1 ovarian, in the experiment with M14 melanoma, in the experiment with MCF7 breast, in the experiment on NCI-H23 lung and in the experiment with NCI/ADR-RES ovarian was greater than 100 µM throughout.

In the case of `CCO[C@]12C[C@H](OC)[C@@]3(O)CC(C1[C@H]3OCc1ccccc1)C13C4C2[C@H](OC)C1[C@](COC)(CN4CC)[C@H](O)C[C@@H]3OC` (some centres undefined), the TGI with ACHN renal, with DLD-1 colon, in the experiment on DMS 114 small cell lung, with DMS 273 small cell lung, with IGROV1 ovarian and with KM20L2 colon was greater than 100 µM each time. For the same compound, the TGI in the experiment on LXFL 529 NSCLC, in the experiment with M14 melanoma, in the experiment with M19-MEL melanoma, with NCI-H23 lung, in the experiment on SNB-78 CNS and in the experiment on XF 498 CNS was greater than 100 µM in each case.

`COc1ccccc1NC(=O)/C(Cc1nc2ccc([N+](=O)[O-])cc2[nH]c1=O)=N\NC(=O)C[N+](C)(C)C`: the TGI in the experiment with ACHN renal, in the experiment on IGROV1 ovarian, in the experiment with M14 melanoma, with MCF7 breast, in the experiment on NCI-H23 lung and with NCI/ADR-RES ovarian was greater than 100 µM each time.

As to `CCOC(=O)c1sc2c(c1OC(=O)c1cccs1)c(=O)n(-c1ccccc1)c(=S)n2-c1ccccc1`, the TGI in the experiment on ACHN renal stood at 37.6 µM; in the experiment with IGROV1 ovarian, 28 µM; in the experiment on M14 melanoma, 33.4 µM; with MCF7 breast it was 69.1 µM; in the experiment with NCI-H23 lung, 46.5 µM; in the experiment on NCI/ADR-RES ovarian, 31.4 µM.

As for `CC(C)[C@@H]1NC(=O)[C@H]2N=C(O[C@@H]2C)[C@@H]2CCCN2C(=O)[C@H](Cc2ccccc2)NC(=O)[C@@H]2CSC(=N2)[C@@H](Cc2ccccc2)NC(=O)[C@@H]2CSC1=N2`, the TGI in the experiment with ACHN renal, in the experiment with IGROV1 ovarian, with M14 melanoma, in the experiment on MCF7 breast, in the experiment on NCI-H23 lung and in the experiment on NCI/ADR-RES ovarian was greater than 50 µM in each case.

With `O=c1oc2ccccc2cc1/C=N/N1C(=S)N(c2ccccc2)C(=Nc2ccccc2)C1=Nc1ccccc1`, the TGI in the experiment on ACHN renal, in the experiment on IGROV1 ovarian, in the experiment with M14 melanoma, in the experiment on MCF7 breast, with NCI-H23 lung and in the experiment on NCI/ADR-RES ovarian was greater than 100 µM each time.

Turning to `COc1cc2c(c(OC)c1OC)C(=O)[C@H](O)[C@H]2NC(N)=O`, the TGI in the experiment on ACHN renal, in the experiment with IGROV1 ovarian, in the experiment with M14 melanoma, with MCF7 breast, in the experiment on NCI-H23 lung and with NCI/ADR-RES ovarian was greater than 100 µM each time.

Take `COC(=O)c1c2n(c3ccccc13)C[C@H]1OC(C)(C)O[C@@H]21`: the TGI in the experiment on ACHN renal, in the experiment on IGROV1 ovarian, in the experiment with M14 melanoma, in the experiment with MCF7 breast, in the experiment on NCI-H23 lung and with NCI/ADR-RES ovarian was greater than 100 µM throughout.

Turning to `CC1CCCc2c(C#N)c(N)nc(-c3ccc(Cl)cc3)c21` (centres undefined), the TGI with ACHN renal was 38.4 µM; in the experiment on IGROV1 ovarian, 56.8 µM; in the experiment with M14 melanoma it was 66.4 µM; in the experiment on MCF7 breast, 84.5 µM; in the experiment on NCI-H23 lung, 93.7 µM; in the experiment on NCI/ADR-RES ovarian it was greater than 100 µM.

In the case of `CCC(NC(C)c1ccccc1)C(O)c1ccc(OCc2ccccc2)c(OCc2ccccc2)c1` (centres undefined), the TGI is 32.2 µM in the experiment on ACHN renal; 33.9 µM in the experiment with IGROV1 ovarian; 16.3 µM in the experiment with M14 melanoma; 31.1 µM with MCF7 breast; 31.6 µM in the experiment with NCI-H23 lung; 30.6 µM in the experiment with NCI/ADR-RES ovarian.
